Assay results from patent US11497734B2, “Dual inhibitors of TIM-3 and PD-1 pathways” (Aurigene Discovery Technologies Limited, priority 2017, dated 2022).

What was measured:
PD-L1 = target: T1, PD-L1 (Mus musculus, UniProt Q9EP73); assay: Rescue of mouse splenocyte proliferation in the presence of recombinant PD-L1 (CFSE proliferation assay); type: cell-based; details: 100 nM compound; anti-CD3/CD28 stimulated mouse splenocytes + PD-L1; 72 h; read-out: PDL1 (rescue of proliferation @ 100 nM)
T1 construct: Fc (Fc chimera); purchased R&D Systems 1019-B7-100
T1 sequence (Q9EP73 19-238 limits assumed): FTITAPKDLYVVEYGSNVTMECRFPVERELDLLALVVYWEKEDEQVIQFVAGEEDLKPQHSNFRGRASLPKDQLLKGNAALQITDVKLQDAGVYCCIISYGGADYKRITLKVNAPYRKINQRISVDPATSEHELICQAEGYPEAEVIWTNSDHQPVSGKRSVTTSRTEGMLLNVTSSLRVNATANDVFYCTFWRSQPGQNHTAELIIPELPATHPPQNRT
Description: Example 1: Rescue of Mouse Splenocyte Proliferation in the Presence of Recombinant PD-L1/PD-L2
Recombinant mouse PD-L1 (rm-PDL-1, cat no: 1019-B7-100; R&D Systems) were used as the source of PD-L1.
Mouse splenocytes harvested from 6-8 weeks old C57 BL6 mice; RPMI 1640 (GIBCO, Cat #11875); DMEM with high glucose (GIBCO, Cat #D6429); Fetal Bovine Serum [Hyclone, Cat #SH30071.03]; Penicillin (10000 unit/mL)-Streptomycin (10,000 μg/mL) Liquid (GIBCO, Cat #15140-122); MEM Sodium Pyruvate solution 100 mM (100×)), Liquid (GIBCO, Cat #11360); Nonessential amino acid (GIBCO, Cat #11140); L-Glutamine (GIBCO, Cat #25030); Anti-CD3 antibody (eBiosciences—16-0032); Anti-CD28 antibody (eBiosciences—16-0281); ACK lysis buffer (1 mL) (GIBCO, Cat #-A10492); Histopaque (density—1.083 gm/mL) (SIGMA 10831); Trypan blue solution (SIGMA-T8154); 2 mL Norm Ject Luer Lock syringe-(Sigma 2014-12); 40 μm nylon cell strainer (BD FALCON 35230); Hemacytometer (Bright line-SIGMA Z359629); FACS Buffer (PBS/0.1% BSA): Phosphate Buffered Saline (PBS) pH 7.2 (HiMedia TS1006) with 0.1% Bovine Serum Albumin (BSA) (SIGMA A7050) and sodium azide (SIGMA 08591); 5 mM stock solution of CFSE: CFSE stock solution was prepared by diluting lyophilized CFSE with 180 μL of Dimethyl sulfoxide (DMSO C2H6SO, SIGMA-D-5879) and aliquoted in to tubes for further use. Working concentrations were titrated from 10 μM to 1 μM. (eBioscience-650850-85); 0.05% Trypsin and 0.02% EDTA (SIGMA 59417C); 96-well format ELISA plates (Corning CLS3390); BD FACS caliber (E6016); Recombinant mouse B7-H1/PDL1 Fc Chimera, (rm-PD-L1 cat no: 1019-B7-100).
Splenocytes harvested in a 50 mL falcon tube by mashing mouse spleen in a 40 μm cell strainer were further treated with 1 mL ACK lysis buffer for 5 min at room temperature. After washing with 9 mL of RPMI complete media, cells were re-suspended in 3 mL of 1×PBS in a 15 mL tube. 3 mL of Histopaque was added carefully to the bottom of the tube without disturbing overlaying splenocyte suspension. After centrifuging at 800×g for 20 min at room temperature, the opaque layer of splenocytes was collected carefully without disturbing/mixing the layers. Splenocytes were washed twice with cold 1×PBS followed by total cell counting using Trypan Blue exclusion method and used further for cell based assays.
Splenocytes were cultured in RPMI complete media (RPMI+10% fetal bovine serum+1 mM sodium pyruvate+10,000 units/mL penicillin and 10,000 μg/mL streptomycin) and maintained in a CO2 incubator with 5% CO2 at 37° C.
CFSE Proliferation Assay: CFSE is a dye that passively diffuses into cells and hinds to intracellular proteins. 1×10^6 cells/mL of harvested splenocytes were treated with 5 μM of CFSE in pre-warmed 1×PBS/0.1% BSA solution for 10 min at 37° C. Excess CFSE was quenched using 5 volumes of ice-cold culture media to the cells and incubated on ice for 5 min. CFSE labeled splenocytes were further given three washes with ice cold complete RPMI media. CFSE labeled 1×10^5 splenocytes added to wells containing either MDA-MB231 cells (1×10^5 cells cultured in high glucose DMEM medium) or recombinant human PDL-1 (100 ng/mL) and test compounds. Splenocytes were stimulated with anti-mouse CD3 and anti-mouse CD28 antibody (1 μg/mL each), and the culture was further incubated for 72 h at 37° C. with 5% CO2. Cells were harvested and washed thrice with ice cold FACS buffer and % proliferation was analysed by flow cytometry with 488 nm excitation and 521 nm emission filters. Data Compilation, Processing and Inference: […]

recombinant human TIM-3 = assay: Human PBMC IFN-γ release assay in the presence of recombinant TIM-3; type: cell-based; details: 100 nM compound, plate-coated TIM-3 + anti-CD3, anti-CD28, 72 h
Description: Vehicle: Milli Q water; RPMI 1640 (GIBCO, Cat #11875); Fetal Bovine Serum [Hyclone, Cat #SH30071.03]; Penicillin (10000 unit/ml)-Streptomycin (10,000 μg/ml) liquid (GIBCO, Cat #15140-122); MEM Sodium Pyruvate solution 100 mM (100×). Liquid (GIBCO, Cat #11360); Nonessential amino acid (GIBCO, Cat #11140); L-Glutamine (GIBCO, Cat #25030); Recombinant human TIM-3 (rhGi24 TIM-3/B7-H5 Fc chimera (R&D systems, cat no: 7126-B7); Anti-h/m Gi24/TIM-3/B7-H5 purified mouse monoclonal IgG2B (R&D systems, cat no: MAB7126); Mouse IgG2B isotype control (R&D Systems cat no: MAB 004); Anti human-CD3 antibody (eBiosciences—16-0039); Anti human-CD28 antibody (eBiosciences—16-0289); Histopaque (density-1.077 gm/ml) (SIGMA 1077); Trypan Blue solution (SIGMA-T8154); Hemacytometer (Bright line-SIGMA Z359629); FACS Buffer containing Phosphate Buffered Saline (PBS) pH 7.2; (HiMedia TS1006) with 0.1% Bovine Serum Albumin (BSA) (SIGMA A7050) and sodium azide (SIGMA 08591); 96-well format ELISA plates (Corning 3599); 96-well format ELISA plates (Corning 3361); BD FACS caliber (E6016); Centrifuge (Eppendorf 5810 R); Human IFN-'γ Duo set ELISA kit (R&D Systems; cat no: DY-285).
Human PBMC IFN-γ Release Assay
96-well cell culture plates were pre-coated with recombinant human TIM-3 (2.5 μg/ml) and anti-human CD3 (2.5 μg/ml), and stored at 4° C. overnight. Anti-human TIM-3 and isotype control antibodies were either coated along with the TIM-3 or incubated for 30 min next day before addition of cells. On the next day, plates were washed with 1× PBS and then incubated with test compounds for 30 min. Isolated PBMC (0.1×10^6 cells/well) and anti-human CD28 antibodies (1 μg/ml) were added to the wells. The culture was further incubated for 72 h at 37° C. with 5% CO2. After 72 h of incubation the cell culture supernatants were collected after brief centrifugation at 200 g×5 min at 4° C. and processed for human IFN-γ measurement by ELISA following manufacturer's protocol (R&D Systems; DY-285).
In brief, 96-well ELISA plates were coated with 100 μl/well of capture antibody in coating buffer and incubated overnight at 4° C. Plates were washed five times with wash buffer and further blocked with 200 μl of 1× assay diluents for 1 hr at RT. Following wash step, 100 μl of cell culture supernatants were added to wells and further incubated for 2 hr at RT. Appropriate standards were also included. After wash step, plate was incubated for one hour with 100 μl/well of detection antibody. The wash step was repeated and the plate was incubated for 30 min with 100 μl/well of Avidin-HRP. The plate was washed four times with wash buffer and subsequently incubated for 15 min with 100 μl/well of substrate solution. 50 μl of stop solution was added to each well and the plate was read at 450 nm using Gen5 ver 2.05. Delta OD values were used for calculating the concentrations. The absorbance values were plotted against the standards and the concentration of IFN-γ was determined using GraphPad Prism software. Each experimental condition was carried out in triplicates.
The percent rescue of IFN-γ release of the selected compounds of present invention are set forth below wherein “A” refers to compounds having more than 70% rescue of IFN-γ release, “B” refers to compounds having rescue of IFN-γ release ranges from 50% to 69.9% and “C” refers to compounds having less than 50% rescue of IFN-γ release.

activity at 0.1 µM (PD-L1)	Compound	TIM-3 (rescue of IFN γ release @ 100 nM) (recombinant human TIM-3)
53%	CSCC[C@H](N)c1noc([C@H](CC(N)=O)NC(=O)N[C@@H](CC(=O)O)C(=O)O)n1 [Compound 10]	C (less than 50% rescue of IFN-γ release)
60%	NCCCC[C@H](N)c1noc([C@H](CCC(=O)O)NC(=O)N[C@@H](CO)C(=O)O)n1 [Compound 11]	C (less than 50% rescue of IFN-γ release)
41%	NCCCC[C@H](N)c1noc([C@H](CC(N)=O)NC(=O)N[C@@H](CO)C(=O)O)n1 [Compound 12]	A (more than 70% rescue of IFN-γ release)
66%	CC(O)[C@H](NC(=O)N[C@@H](CCCCN)c1nc([C@@H](N)CO)no1)C(=O)O (stereo partly drawn) [Compound 13]	C (less than 50% rescue of IFN-γ release)
84%	COC(C)[C@H](NC(=O)N[C@@H](CC(N)=O)c1nc([C@@H](N)CO)no1)C(=O)O (stereo partly drawn) [Compound 14]	C (less than 50% rescue of IFN-γ release)
50%	CCC(C)[C@H](NC(=O)N[C@H](C(=O)O)C(C)O)c1nc([C@@H](N)CO)no1 (stereo partly drawn) [Compound 15]	C (less than 50% rescue of IFN-γ release)
92%	CC(O)[C@H](NC(=O)N[C@@H](CC(N)=O)c1nc(C2COCCN2)no1)C(=O)O (stereo partly drawn) [Compound 16]	B (rescue of IFN-γ release ranges from 50% to 69.9%)
57%	CC(O)[C@H](NC(=O)N[C@@H](CCC(=O)O)c1nc(C2COCCN2)no1)C(=O)O (stereo partly drawn) [Compound 17]	C (less than 50% rescue of IFN-γ release)
57%	N[C@@H](Cc1ccc(O)cc1)c1noc([C@@H]2CC(O)CN2C(=O)N[C@@H](Cc2ccc(O)cc2)C(=O)O)n1 (stereo partly drawn) [Compound 18]	C (less than 50% rescue of IFN-γ release)
54%	N[C@@H](Cc1ccc(O)cc1)c1noc([C@@H]2CCCCN2C(=O)N[C@@H](Cc2ccc(O)cc2)C(=O)O)n1 [Compound 19]	C (less than 50% rescue of IFN-γ release)
37%	CC(=O)NCCCC[C@H](NC(=O)N[C@H](C(=O)O)C(C)O)c1nc([C@@H](N)CO)no1 (stereo partly drawn) [Compound 20]	C (less than 50% rescue of IFN-γ release)
50%	CC(O)[C@H](NC(=O)N[C@@H](CC(N)=O)c1nc([C@@H](N)Cc2ccc(O)cc2)no1)C(=O)O (stereo partly drawn) [Compound 21]	C (less than 50% rescue of IFN-γ release)

Continued, compound first:

Compound	activity at 0.1 µM (PD-L1)	TIM-3 (rescue of IFN γ release @ 100 nM) (recombinant human TIM-3)
CC(O)[C@H](NC(=O)N[C@@H](CC(N)=O)c1nc([C@@H](N)CCC(=O)O)no1)C(=O)O (stereo partly drawn) [Compound 1]	68%	B (rescue of IFN-γ release ranges from 50% to 69.9%)
CCC(C)[C@H](NC(=O)N[C@@H](CC(N)=O)c1nc([C@@H](N)CO)no1)C(=O)O (stereo partly drawn) [Compound 2]	73%	A (more than 70% rescue of IFN-γ release)
CC(O)[C@H](NC(=O)N[C@@H](CC(N)=O)c1nc([C@@H](N)Cc2ccccc2)no1)C(=O)O (stereo partly drawn) [Compound 3]	62%	A (more than 70% rescue of IFN-γ release)
CC(O)[C@H](NC(=O)N[C@@H](CC(=O)O)c1nc([C@@H](N)CO)no1)C(=O)O (stereo partly drawn) [Compound 4]	52%	C (less than 50% rescue of IFN-γ release)
CC(O)[C@H](NC(=O)N[C@@H](CCC(=O)O)c1nc([C@@H](N)CO)no1)C(=O)O (stereo partly drawn) [Compound 5]	88%	A (more than 70% rescue of IFN-γ release)
CC(O)[C@H](NC(=O)N[C@@H](CCC(=O)O)c1nc([C@@H](N)CCCCN)no1)C(=O)O (stereo partly drawn) [Compound 6]	52%	A (more than 70% rescue of IFN-γ release)
CC(O)[C@H](NC(=O)N[C@H](CC(N)=O)c1nc([C@@H](N)CO)no1)C(=O)O (stereo partly drawn) [Compound 7]	74%	A (more than 70% rescue of IFN-γ release)
CC(O)[C@@H](N)c1noc([C@@H](CC(N)=O)NC(=O)N[C@H](CO)C(=O)O)n1 (stereo partly drawn) [Compound 8]	68%	B (rescue of IFN-γ release ranges from 50% to 69.9%)
CC(C)[C@H](NC(=O)N[C@@H](CC(N)=O)c1nc([C@@H](N)CCCCN)no1)C(=O)O [Compound 9]	138%	C (less than 50% rescue of IFN-γ release)
